Experiments:
[1] = system: Antikörperbildung gegen Schafserythrozyten (Plaquebildende Milzzellen); assay: Antibody formation against sheep erythrocytes (JERNE plaque test, IgM plaque-forming spleen cells) in X-irradiated, bone-marrow-transplanted mice; type: in vivo, AB/Bln.-Mäuse
Excerpt: (§1) Zum Nachweis der immunologischen Wirkungen wurden folgende Modelle verwendet: - "Kolonien - Bildung" ("Kolonien" - Bildungstest ) durch menschliche Knochenmarkzellen nach Kultivierung der Zellen mit dem menschlichen Granulocyten - Makrophagen - "Kolonien" - stimulierenden Faktor (hGM-CSF) und Spleninderivaten. - die Antikörperbildung gegen Schafserythrozyten ( Plaquebildende Milzzellen ) durch Ab/Bln.-Mäuse nach Röntgenbestrahlung (Tabelle 2).
Es wurden drei Monate alte AB/Bln.-Mäuse einmalig mit 800 cGy röntgenbestrahlt. Danach wurden die Tiere in drei Gruppen aufgeteilt und folgendermaßen weiterbehandelt: • Gruppe 1: Nach der Bestrahlung wurde den Tieren Knochenmarkzellen von Tieren des gleichen Inzuchtstammes transplantiert (Injektion von je 5 mal 10⁶ Knochenmarkzellen pro Tier). […] In differenten Zeitabständen nach der Bestrahlung und während der DAc-hSP5-Behandlung wurde mittels des JERNE-Plaque-Testes die Fähigkeit der Tiere untersucht, Antikörper zu bilden. • Gruppe 2: Gleiche Behandlung der Tiere wie in Gruppe 1, jedoch keine Therapie der Tiere mit DAc-hSP5. • Gruppe 3: Alleinige Röntgenbestrahlung der Tiere; keine Transplantation syngener Knochenmarkzellen, keine Therapie der Tiere mit DAc-hSP5.
Fünf Tage vor der Bestimmung der IgM Plaque-bildenden Milzzellen (Tage, angegeben in Tabelle 2) wurden die Tiere mit 5 x 10⁸ Schafserythrozyten immunisiert (intaperitoneale Applikation). Methodik: Eckert et.al., Biomed. Biochem. Acta, 1985, (44), 1239.

[2] = system: menschliche Knochenmarkzellen; assay: Colony formation test: human bone marrow cells cultured with hGM-CSF and splenin derivatives; type: cell-based; conditions: human bone marrow cells with hGM-CSF; Tab.1, Nr.6
Excerpt: as §1
Stimulierung des Wachstums und der Reifung von Knochenmarkstammzellen (in vitro)
Die Anzahl der gebildeten "Kolonien" ist dabei ein Maß für die mitotische bzw. differenzierende Wirkung der Faktoren auf die Knochenmarkzellen. Da Thymopentin in diesem Testsystem (Tab.1, Nr.6) keine Wirkung zeigte, ist anzunehmen, daß die immunstimulierende Wirkung von Timunox nicht über eine Wirkung auf Stammzellen des Knochenmarks zustande kommt.

Row | Substance | Effekt auf die Antikörperbildung ([1]; 1 µg per animal i.p. three times weekly) | Effekt auf die Antikörperbildung ([1]; 2 µg per animal i.p. three times weekly) | Effekt auf die Antikörperbildung ([1]; 4 µg per animal i.p. three times weekly) | Effekt auf die Antikörperbildung ([1]; 8 µg per animal i.p. three times weekly) | Effekt auf die Antikörperbildung ([1]; 10 ug per animal i.p. three times weekly) | Effekt auf die Antikörperbildung ([1]; 20 µg per animal i.p. three times weekly) | Effekt auf die Antikörperbildung ([1]; 50 µg per animal i.p. three times weekly) | Antikörperbildung (IgM Plaque-bildende Milzzellen) ([1]; 800 cGy, syngeneic bone marrow transplant, 10 µg per animal i.p. three times weekly, Tabelle 2) | Wirkung im "Kolonien"-Bildungstest (Anzahl der gebildeten "Kolonien") [2]
1 | (N^α-Acetyl)-arginyl-(N^ε-acetyl)-lysylalanylvalyltyrosin [DAc-hSP5] | nicht wirksam | nicht wirksam | nicht wirksam | suboptimal | optimalen Effekt | Effekt wie nach der von 10 ug | Effekt wie nach der von 10 ug | beschleunigt zu einer normalen Antikörperbildung befähigt | 
2 | Thymopentin |  |  |  |  |  |  |  |  | keine Wirkung

Reference: patent EP0410372A1, “Process for preparing human splenin derivatives” (BERLIN-CHEMIE AG, priority 1989, dated 1991)
